# Source: PubChem BioAssay (NCI)
#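 Grown in 96-well plates, cells were treated for 48 hours with each compound at five concentrations. Insufficient inhibition: endpoint recorded as highest concentration tested. GI50 = concentration required for 50% inhibition of growth. At the TGI there is no net growth.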
# Assays:
# Assay in all cases: growth of human tumour cells (NCI), 48 h
# 786-0 renal = system: 786-0 renal
# A498 renal = system: A498 renal
# A549 NSCLC = system: A549 NSCLC
# ACHN renal = system: ACHN renal
# BT-549 breast = system: BT-549 breast
# CAKI-1 renal = system: CAKI-1 renal
# CCRF-CEM leukemia = system: CCRF-CEM leukemia
# COLO 205 colon = system: COLO 205 colon
# DU-145 prostate = system: DU-145 prostate
# EKVX NSCLC = system: EKVX NSCLC
# HCC-2998 colon = system: HCC-2998 colon
# HCT-15 colon = system: HCT-15 colon
# HOP-62 NSCLC = system: HOP-62 NSCLC
# HS 578T breast = system: HS 578T breast
# HT29 colon = system: HT29 colon
# IGROV1 ovarian = system: IGROV1 ovarian
# K-562 leukemia = system: K-562 leukemia
# KM12 colon = system: KM12 colon
# M14 melanoma = system: M14 melanoma
# MALME-3M melanoma = system: MALME-3M melanoma
# MCF7 breast = system: MCF7 breast
# MDA-MB-231 breast = system: MDA-MB-231 breast
# MDA-MB-435 = system: MDA-MB-435
# MOLT-4 leukemia = system: MOLT-4 leukemia
# NCI-H226 lung = system: NCI-H226 lung
# NCI-H460 lung = system: NCI-H460 lung
# NCI-H522 lung = system: NCI-H522 lung
# NCI/ADR-RES ovarian = system: NCI/ADR-RES ovarian
# OVCAR-3 ovarian = system: OVCAR-3 ovarian
# OVCAR-4 ovarian = system: OVCAR-4 ovarian
# OVCAR-5 ovarian = system: OVCAR-5 ovarian
# OVCAR-8 ovarian = system: OVCAR-8 ovarian
# PC-3 prostate = system: PC-3 prostate
# RPMI-8226 leukemia = system: RPMI-8226 leukemia
# RXF 393 renal = system: RXF 393 renal
# SF-268 CNS = system: SF-268 CNS
# SF-295 CNS = system: SF-295 CNS
# SF-539 CNS = system: SF-539 CNS
# SK-MEL-2 melanoma = system: SK-MEL-2 melanoma
# SK-MEL-28 melanoma = system: SK-MEL-28 melanoma
# SK-MEL-5 melanoma = system: SK-MEL-5 melanoma
# SK-OV-3 ovarian = system: SK-OV-3 ovarian
# SN12C renal = system: SN12C renal
# SNB-19 CNS = system: SNB-19 CNS
# SNB-75 CNS = system: SNB-75 CNS
# SR leukemia = system: SR leukemia
# SW-620 colon = system: SW-620 colon
# T-47D breast = system: T-47D breast
# TK-10 renal = system: TK-10 renal
# U251 CNS = system: U251 CNS
# UACC-257 melanoma = system: UACC-257 melanoma
# UACC-62 melanoma = system: UACC-62 melanoma
# UO-31 renal = system: UO-31 renal
smiles,measurement,setting,value
CC(C)Sc1nc(Nc2ccc(S(N)(=O)=O)cc2)c(C#N)c(-c2ccc(F)cc2)n1,GI50,786-0 renal,3.31 µM
same,TGI,786-0 renal,11.1 µM
same,GI50,A498 renal,2.82 µM
same,TGI,A549 NSCLC,10.4 µM
same,GI50,ACHN renal,3.07 µM
same,TGI,ACHN renal,9.12 µM
same,GI50,BT-549 breast,9.29 µM
same,TGI,BT-549 breast,35.4 µM
same,GI50,CAKI-1 renal,1.78 µM
same,TGI,CAKI-1 renal,3.61 µM
same,GI50,CCRF-CEM leukemia,7.35 µM
same,GI50,COLO 205 colon,7.98 µM
same,TGI,COLO 205 colon,30.2 µM
same,GI50,DU-145 prostate,5.68 µM
same,TGI,DU-145 prostate,> 100 µM
same,GI50,EKVX NSCLC,3.31 µM
same,TGI,EKVX NSCLC,14.1 µM
same,GI50,HCC-2998 colon,10.7 µM
same,TGI,HCC-2998 colon,27.6 µM
same,TGI,HCT-15 colon,> 100 µM
same,GI50,HOP-62 NSCLC,3.12 µM
same,TGI,HOP-62 NSCLC,10.7 µM
same,GI50,HS 578T breast,2.76 µM
same,TGI,HS 578T breast,9.31 µM
same,GI50,HT29 colon,2.09 µM
same,TGI,HT29 colon,4.77 µM
same,TGI,IGROV1 ovarian,20.7 µM
same,GI50,K-562 leukemia,4.26 µM
same,GI50,KM12 colon,6.92 µM
same,TGI,KM12 colon,> 100 µM
same,GI50,M14 melanoma,5.59 µM
same,TGI,M14 melanoma,23.7 µM
same,GI50,MALME-3M melanoma,3.2 µM
same,TGI,MALME-3M melanoma,10.3 µM
same,TGI,MCF7 breast,32.1 µM
same,GI50,MDA-MB-231 breast,2.86 µM
same,TGI,MDA-MB-231 breast,8.1 µM
same,GI50,MDA-MB-435,4.35 µM
same,TGI,MDA-MB-435,31.9 µM
same,GI50,MOLT-4 leukemia,5.39 µM
same,GI50,NCI-H226 lung,2.14 µM
same,TGI,NCI-H226 lung,5.54 µM
same,TGI,NCI-H460 lung,5.57 µM
same,GI50,NCI-H522 lung,8 µM
same,GI50,NCI/ADR-RES ovarian,3.24 µM
same,GI50,OVCAR-3 ovarian,3.02 µM
same,TGI,OVCAR-3 ovarian,8.51 µM
same,GI50,OVCAR-4 ovarian,2.1 µM
same,TGI,OVCAR-4 ovarian,4.92 µM
same,GI50,OVCAR-5 ovarian,14.6 µM
same,TGI,OVCAR-5 ovarian,62.4 µM
same,GI50,OVCAR-8 ovarian,3.98 µM
same,TGI,OVCAR-8 ovarian,15.7 µM
same,GI50,PC-3 prostate,4.84 µM
same,TGI,PC-3 prostate,19 µM
same,GI50,RPMI-8226 leukemia,9.22 µM
same,TGI,RPMI-8226 leukemia,64.3 µM
same,TGI,RXF 393 renal,4.47 µM
same,GI50,SF-268 CNS,5.49 µM
same,TGI,SF-268 CNS,30.6 µM
same,GI50,SF-295 CNS,1.95 µM
same,TGI,SF-295 CNS,3.73 µM
same,TGI,SF-539 CNS,4.81 µM
same,GI50,SK-MEL-2 melanoma,19 µM
same,TGI,SK-MEL-2 melanoma,55.7 µM
same,GI50,SK-MEL-28 melanoma,14.6 µM
same,TGI,SK-MEL-28 melanoma,37.7 µM
same,GI50,SK-MEL-5 melanoma,23.3 µM
same,TGI,SK-MEL-5 melanoma,77.4 µM
same,GI50,SK-OV-3 ovarian,3.04 µM
same,TGI,SK-OV-3 ovarian,8.94 µM
same,GI50,SN12C renal,2.38 µM
same,TGI,SN12C renal,5.99 µM
same,GI50,SNB-19 CNS,2.85 µM
same,TGI,SNB-19 CNS,8.01 µM
same,GI50,SNB-75 CNS,2.49 µM
same,TGI,SNB-75 CNS,9.2 µM
same,GI50,SR leukemia,3.73 µM
same,GI50,SW-620 colon,3.84 µM
same,TGI,SW-620 colon,22.8 µM
same,GI50,T-47D breast,3.46 µM
same,TGI,T-47D breast,20.3 µM
same,GI50,TK-10 renal,3.08 µM
same,GI50,U251 CNS,1.81 µM
same,TGI,U251 CNS,3.54 µM
same,GI50,UACC-257 melanoma,14.4 µM
same,TGI,UACC-257 melanoma,47.8 µM
same,GI50,UACC-62 melanoma,10.3 µM
same,TGI,UACC-62 melanoma,26.3 µM
same,GI50,UO-31 renal,2.39 µM
same,TGI,UO-31 renal,8.92 µM
